T1: human dopamine D2L receptor (wild type, non-tagged) (human), P14416
T1 chain: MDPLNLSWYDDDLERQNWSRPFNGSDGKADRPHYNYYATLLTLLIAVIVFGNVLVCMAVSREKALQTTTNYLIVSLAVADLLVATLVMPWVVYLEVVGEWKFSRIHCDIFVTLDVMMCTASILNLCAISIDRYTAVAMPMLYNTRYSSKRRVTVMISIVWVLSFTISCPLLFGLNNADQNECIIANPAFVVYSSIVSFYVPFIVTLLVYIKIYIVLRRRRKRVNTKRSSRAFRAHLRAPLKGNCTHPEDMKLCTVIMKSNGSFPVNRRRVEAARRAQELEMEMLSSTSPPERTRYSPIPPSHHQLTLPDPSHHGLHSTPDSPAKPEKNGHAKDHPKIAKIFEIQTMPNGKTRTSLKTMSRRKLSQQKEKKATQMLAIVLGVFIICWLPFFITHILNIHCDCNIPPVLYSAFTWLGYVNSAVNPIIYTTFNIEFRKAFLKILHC

B1: human dopamine D2S receptor (receptor, UniProt P14416-2 1-414, looked up)
chain: MDPLNLSWYDDDLERQNWSRPFNGSDGKADRPHYNYYATLLTLLIAVIVFGNVLVCMAVSREKALQTTTNYLIVSLAVADLLVATLVMPWVVYLEVVGEWKFSRIHCDIFVTLDVMMCTASILNLCAISIDRYTAVAMPMLYNTRYSSKRRVTVMISIVWVLSFTISCPLLFGLNNADQNECIIANPAFVVYSSIVSFYVPFIVTLLVYIKIYIVLRRRRKRVNTKRSSRAFRAHLRAPLKEAARRAQELEMEMLSSTSPPERTRYSPIPPSHHQLTLPDPSHHGLHSTPDSPAKPEKNGHAKDHPKIAKIFEIQTMPNGKTRTSLKTMSRRKLSQQKEKKATQMLAIVLGVFIICWLPFFITHILNIHCDCNIPPVLYSAFTWLGYVNSAVNPIIYTTFNIEFRKAFLKILHC
notes: human dopamine D2S receptor (short form of the D2 receptor), non-tagged; source: CHO-K1, stably expressing, in the membrane of living cells
B2: human dopamine D3 receptor (receptor, UniProt P35462 1-400, looked up)
chain: MASLSQLSGHLNYTCGAENSTGASQARPHAYYALSYCALILAIVFGNGLVCMAVLKERALQTTTNYLVVSLAVADLLVATLVMPWVVYLEVTGGVWNFSRICCDVFVTLDVMMCTASILNLCAISIDRYTAVVMPVHYQHGTGQSSCRRVALMITAVWVLAFAVSCPLLFGFNTTGDPTVCSISNPDFVIYSSVVSFYLPFGVTVLVYARIYVVLKQRRRKRILTRQNSQCNSVRPGFPQQTLSPDPAHLELKRYYSICQDTALGGPGFQERGGELKREEKTRNSLSPTIAPKLSLEVRKLSNGRLSTSLKLGPLQPRGVPLREKKATQMVAIVLGAFIVCWLPFFLTHVLNTHCQTCHVSPELYSATTWLGYVNSALNPVIYTTFNIEFRKAFLKILSC
notes: human dopamine D3 receptor, non-tagged; source: dihydrofolate reductase gene-deficient CHO-K1 cells, stably expressing, in the membrane of living cells
B3: human dopamine D2L receptor (wild type, non-tagged), P14416 1-443 (receptor)
chain: T1 chain

Experiments:
[1] = biological target: T2, human D3 (Homo sapiens, UniProt P35462); experiment: [3H]spiperone competition/saturation binding, membranes of CHO cells expressing human D3; conditions: [³H]spiperone competition, CHO cell membranes; read-out: Ki ± s.d. hD3
T2 construct: expressed in transfected cells

[2] = biological target: T3, SNAP-D2L receptor (Homo sapiens, UniProt P14416); experiment: Single-molecule TIRF-M of SNAP-D2L receptors in CHO cells with ligands (dimerization, mobility, colocalization); assay type: cell-based; conditions: for Average Dlat 24°C (average lateral diffusion coefficient) / Density (spots µm-2) / fraction of dimers: SNAP-D2L in CHO cells; for Average Dlat 24°C (average lateral diffusion coefficient) / Density (spots µm-2): mean ± s.d.; for effect on monomer/dimer ratio and mobility of the SNAP-D2L receptor compared to ligand-free conditions: Alexa546-labeled SNAP-D2L in CHO cells incubated with ligand; for fraction of dimers: 10-fold Ki, ligand-free 30%; for mean apparent colocalization lifetime τ of two receptors in a dimer: SNAP-D2L incubated with ligand, one-phase exponential decay fit, 120 trajectories, ligand free 0.46 s
T3 construct: expressed in transfected cells
Description: 24 h before the TIRF-experiment dried and cleaned glass slides were placed in a 12 well plate and were coated by incubation with 20 μg ml^−1 fibronectin (Sigma–Aldrich) in sterile PBS for 1 h at 37 °C. After coating, fibronectin was aspirated and the glass surface was rinsed one time with sterile PBS. CHO cells expressing SNAP-D2L, SNAP-CD86, SNAP-CD28, D2L, D2S or D3 receptors were seeded on coated glass slides in phenol-red-free DMEM/F12 supplemented with 10% FCS and were allowed to adhere overnight at 37 °C and 5% CO2.
Subsequently, cells were washed three times with phenol red-free DMEM/F12 supplemented with 10% FBS, each time followed by 5 min incubation at 37 °C.
For the ligand treatment experiments, the indicated concentration of the corresponding ligand in phenol red-free DMEM/F12 supplemented with 10% FBS were added to stably transfected CHO cells, which were ready for imaging, for 1 h before imaging.
Subsequently after labeling, cells were washed three times with phenol red-free DMEM/F12 supplemented with 10% FBS. […] Finally the imaging chamber was refilled with fresh imaging buffer and mounted immediately on a microscope stage for TIRF-M imaging.
The microscope control and image acquisition were performed by the NIS Elements software (Nikon Instruments). To ensure homogenous illumination, only the central quarter of the chip (300 × 300 pixel) was used for imaging analysis.
The image analysis procedures have been described in detail previously. An automated single particle tracking (ASPT) algorithm[58] implemented in custom-written software, GMimPro (www.mashanov.uk), was used to identify and track individual fluorescent spots on sequential video frames. ASPT settings used were FWHM300nm, R5, L20, Q10 and C999. Output from this image analysis gave fluorophore centroid positions (with 25 nm precision), integrated fluorophore intensities, total fluorophore number and trajectory lifetime. Spatial trajectories and intensity trajectories (i.e. intensities vs. time) were then further analysed to determine: the lateral diffusion coefficient, Dlat, which was derived from averaged mean squared displacement (MSD) versus time interval (δt), the average fluorescent spot density (spot μm^−^2) and distribution across the cell membrane and the intensity distribution of individual fluorescent spots and intensity fluctuation with time as well as the lifetime of colocalization. The Dlat was measured for each cell separately and the average value (average Dlat, mean ± standard deviation (s.d.)) was calculated for an indicated number of cells. Slow-moving objects Dlat < 0.02 μm^2 s^−1 were excluded from the analysis and only cells with a mobile trajectory fraction (trajectories with a Dlat > 0.02 μm^2 s^−1) over 0.75 were used for further analysis. Intensity distributions of fluorescent spots identified over the first 10-frame time window of TIRF illumination were fitted with a sum of Gaussian distributions (with standard deviation proportional to square root of intensity level) using the PRISM routine. The ratio of the areas under the Gaussian curves was calculated to give the percentage of the underlying component. Unpaired two-tailed Student´s t-tests were used for statistical significance.

[3] = biological target: T4, human D2L (Homo sapiens, UniProt P14416); experiment: [3H]spiperone competition/saturation binding, membranes of CHO cells expressing human D2L; conditions: [³H]spiperone competition, CHO cell membranes; read-out: Ki ± s.d. hD2L
T4 construct: expressed in transfected cells

[4] = biological target: T5, human D2S (Homo sapiens, UniProt P14416); experiment: [3H]spiperone competition/saturation binding, membranes of CHO cells expressing human D2S; conditions: [³H]spiperone competition, CHO cell membranes; read-out: Ki ± s.d. hD2S
T5 construct: expressed in transfected cells

[5] = biological target: SNAP-D2L receptors (Homo sapiens, UniProt P14416+P16455, A127T/A154D/C150Q/C62A/E30R/G131K/G132T/G153L/K125A/K32I/L33F/M134L/N157G/Q115S/Q116H/R128A/R135S/S151G/S152D/S159E); experiment: [3H]spiperone competition/saturation binding, membranes of CHO cells expressing SNAP-D2L
SNAP-D2L receptors, sequence (P16455+P14416 fused with the stated changes): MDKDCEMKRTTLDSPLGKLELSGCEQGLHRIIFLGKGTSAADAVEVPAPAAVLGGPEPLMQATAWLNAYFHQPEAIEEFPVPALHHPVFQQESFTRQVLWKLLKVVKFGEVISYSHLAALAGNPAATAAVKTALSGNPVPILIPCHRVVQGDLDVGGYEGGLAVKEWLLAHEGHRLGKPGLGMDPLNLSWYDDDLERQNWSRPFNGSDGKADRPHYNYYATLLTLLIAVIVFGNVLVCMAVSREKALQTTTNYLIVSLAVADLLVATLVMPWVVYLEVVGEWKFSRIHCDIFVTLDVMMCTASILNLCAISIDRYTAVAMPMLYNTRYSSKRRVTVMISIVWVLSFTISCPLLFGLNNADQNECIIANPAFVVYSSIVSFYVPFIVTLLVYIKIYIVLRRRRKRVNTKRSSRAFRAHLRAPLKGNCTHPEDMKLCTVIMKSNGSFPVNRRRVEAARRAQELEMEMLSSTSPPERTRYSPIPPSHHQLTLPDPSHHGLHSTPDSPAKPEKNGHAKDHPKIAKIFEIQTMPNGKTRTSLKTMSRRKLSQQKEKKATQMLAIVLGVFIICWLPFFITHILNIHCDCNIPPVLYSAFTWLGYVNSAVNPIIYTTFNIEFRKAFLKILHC
Description: Membrane preparations were obtained using the methods described previously[50]. […] The homogenized membranes were shock-frozen in liquid nitrogen and stored at −80 °C until usage. The protein concentration was determined by the Lowry method[51] using bovine serum albumin as a standard.
Receptor binding studies were carried out as described previously[27][50][52]. […] The Ki values for the compounds were obtained by competition experiments.
Analysis of the saturation experiments were performed using a nonlinear regression analysis of the data for the determination of KD and Bmax values using PRISM (GraphPad Software). Competition curves were fitted to a sigmoid curve by nonlinear regression analysis in which the log IC50 value and the Hill coefficient were free parameters. IC50 values were transformed to Ki values according to the equation of Cheng and Prusoff [53].

[6] = biological target: the molecule itself; experiment: single-molecule TIRF microscopy (intensity distribution of fluorescent spots); receptors on living CHO cells labelled 1 h at 37 °C with a fluorescent (Cy3B) antagonist (1c, 4a or 4b) at 10-fold Ki; spots fitted with a mixed Gaussian model
[7] = biological target: T1, human dopamine D2L receptor (wild type, …); experiment: as above; conditions: remark: other sources report otherwise
[8] = biological target: T1, human dopamine D2L receptor (wild type, …); experiment: single-molecule TIRF microscopy (intensity distribution of fluorescent spots); receptors on living CHO cells labelled 1 h at room temperature with a fluorescent (Cy3B) agonist (5a or 5b) at 10-fold Ki; spots fitted with a mixed Gaussian model; conditions: remark: other sources report otherwise
[9] = 10 x Ki value labeling concentration
[10] = 100 x Ki value labeling concentration

Molecule | Ki [1] | Average Dlat 24°C (average lateral diffusion coefficient) [2, 9] | Density (spots µm-2) [2, 9] | Ki [3] | Ki [4] | Ki [5] | Average Dlat 24°C (average lateral diffusion coefficient) [2, 10] | Density (spots µm-2) [2, 10] | further results
COc1cc(CN2CCN(C)CC2)ccc1OCCCc1cn(CCCCCCCCn2cc(CCCOc3ccc(CN4CCN(c5ccccc5OC)CC4)cc3OC)nn2)nn1 [3a] | 220 ± 83 nM | 0.083 ± 0.004 µm² s-1 | 0.67 ± 0.03 spots µm-2 | 9.8 ± 9.8 nM | 7.3 ± 1.3 nM |  |  |  | 
CCCCn1cc(CCCOc2ccc(CN3CCN(c4ccccc4OC)CC3)cc2OCCCCN)nn1 [1b] | 70 ± 24 nM | 0.085± 0.004 µm² s-1 | 0.66 ± 0.04 spots µm-2 | 15 ± 8 nM | 18 ± 5.7 nM | 4.8 ± 0.28 nM | 0.081 ± 0.006 µm² s-1 | 0.69 ± 0.04 spots µm-2 | effect on monomer/dimer ratio and mobility of the SNAP-D2L receptor compared to ligand-free conditions [2]: no effect
COc1ccccc1N1CCN(Cc2ccc(OCCCc3cn(CCCCCCCCn4cc(CCCOc5ccc(CN6CCN(c7ccccc7OC)CC6)cc5OCCCCN)nn4)nn3)c(OCCCCN)c2)CC1 [2b] | 2.6 ± 0.64 nM | 0.075 ± 0.004 µm² s-1 | 0.64 ± 0.04 spots µm-2 | 3 ± 0.29 nM | 3 ± 0.92 nM | 2.4 ± 1.1 nM | 0.071 ± 0.05 µm² s-1 | 0.67 ± 0.02 spots µm-2 | fraction of dimers [2]: 58%
COc1cc(CN2CCN(c3ccccc3OC)CC2)ccc1OCCCc1cn(CCCCCCCCn2cc(CCCOc3ccc(CN4CCN(C5CCCCC5)CC4)cc3OC)nn2)nn1 [3b] | 100 ± 33 nM | 0.083 ± 0.005 µm² s-1 | 0.68 ± 0.04 spots µm-2 | 19 ± 8.2 nM | 17 ± 8.1 nM |  |  |  | 
COc1cc(CN2CCN(c3ccccc3OC)CC2)ccc1OCCCc1cn(CCCCCCCCn2cc(CCCOc3ccc(CN4CCN(c5ccccc5OC)CC4)cc3OC)nn2)nn1 [2a] | 84 ± 24 nM | 0.074 ± 0.004 µm² s-1 | 0.65 ± 0.04 spots µm-2 | 22 ± 6.7 nM | 41 ± 19 nM | 20 ± 7.1 nM | 0.075 ± 0.005 µm² s-1 | 0.65 ± 0.04 spots µm-2 | fraction of dimers [2]: 66%; mean apparent colocalization lifetime τ of two receptors in a dimer [2]: 1.16 s
CCCCn1cc(CCCOc2ccc(CN3CCN(c4ccccc4OC)CC3)cc2OC)nn1 [1a] | 615 ± 370 nM | 0.087 ± 0.003 µm² s-1 | 0.68 ± 0.04 spots µm-2 | 67 ± 33 nM | 53 ± 37 nM | 280 ± 190 nM | 0.083 ± 0.005 µm² s-1 | 0.69 ± 0.03 spots µm-2 | effect on monomer/dimer ratio and mobility of the SNAP-D2L receptor compared to ligand-free conditions [2]: no effect; mean apparent colocalization lifetime τ of two receptors in a dimer [2]: 0.42 s
B1 |  |  |  |  |  |  |  |  | stoichiometry N [6]: 2
B2 |  |  |  |  |  |  |  |  | stoichiometry N [6]: 2
B3 |  |  |  |  |  |  |  |  | percent of fluorescent spots that are dimers, labelled with antagonist 1c [7]: 29%; percent of fluorescent spots that are dimers, labelled with antagonist 4a [7]: 30%; percent of fluorescent spots that are dimers, labelled with antagonist 4b [7]: 29%; percent of fluorescent spots that are monomers, labelled with antagonist 1c [7]: 71%; percent of fluorescent spots that are monomers, labelled with antagonist 4a [7]: 70%; stoichiometry N [7]: 2; percent of fluorescent spots that are dimers, labelled with agonist 5a [8]: 45%; percent of fluorescent spots that are dimers, labelled with agonist 5b [8]: 42%

Source: paper PMC5018964, “Visualization and ligand-induced modulation of dopamine receptor dimerization at the single molecule level” (Scientific Reports, 2016)
